What was measured:
[1] = tested on: Th1/Th17 cell infiltration; conditions: in vivo; cited from earlier work
[2] = tested on: AOM-induced colon tumors; test: AOM-induced tumorigenesis with UA-containing diets; assay type: in vivo, FVB mice
Description: Oral UA confers anti-tumor effects in murine colorectal cancer in a T-cell dependent manner. (FIG. 1A) Schematic representation of AOM model and different UA containing diets. (FIG. 1B) Representative images of swiss-roll sections from AOM-induced colon tumors. Scale bars are 2 mm (upper row) and 300 µm (lower row), respectively. (FIG. 1C) Tumor incidence of AOM-induced tumors receiving different UA-containing diets; n=4/5/5. Data are mean ±SD, depicting one of two independent experiments. *p < 0.05 by two-sided t-test. (FIG. 1D) Average lesion size of AOM-induced tumors receiving different UA-containing diets; n=4/5/5. Data are mean ±SD, depicting one of two independent experiments. *p < 0.05 by two-sided t-test. (FIG. 1E) Relative number of CD45^+CD3^+ T cells in colons of AOM-treated mice at week 24 (n>7, pooled from two independent experiments). Data are mean ± SD, **p < 0.01 by two-sided t-test. (FIG. 1F) Organoid treatment scheme. APTK-organoids were incubated in the presence of UA or DMSO for the indicated time points, prior to flow cytometric analysis. (FIG. 1G) Quantification of lysosome formation as assessed by lysotracker MFI via flow cytometry after 24 h incubation at the presence of various UA concentrations (n=5/4/4). Depicts one out of two indepdent experiments. Data are mean ± SD, *p < 0.05; **p < 0.01 as established via two-sided t-test. (FIG. 1H) Mitotracker signal of APTK organoids incubated for 24 h at the presence of UA in vitro (n=4/4/4) and antigen presentation via MHC-I molecules (I) after 48 h of treatment (n=4/4/4). Results from one out of two independent experiments are shown. Data are mean ± SD, statistical analysis was performed via two-sided t-test, *p < 0.05; **p < 0.01, ****p < 0.0001. (FIG. 1I) Upregulation of MHC-I by UA. (FIG. 1J) Experimental setup of oral UA administration in mice with established APTK-s.c. tumors. Treatment diet was initiated eleven days after tumor injection and maintained until the end of the experiment. (FIG. 1K) Growth curve of mice subcutaneously transplanted with APTK tumors, receiving either UA-containing or control food (n=7 per group). Data are mean ± SD, ***p <0.001 by two-sided t-test. One out of two independent experiments are shown. (FIG. 1L) End point tumor weight, (FIG. 1M) CD8+ T cell infiltration in APTK-s.c. tumors assessed by flow cytometry, normalising total number of CD8^+ T cells to tumor weight (n=7 per group). Data are mean ± SD, statistical analysis was performed via Mann-Whitney test, *p < 0.05 and ***p <0.001. (FIG. 1N) Size of subcutaneous APTK tumors in Rag1^-/- mice receiving UA-containing or control food (n=7 per group). Treatment was initiated as depicted in FIG. 1J. Data are mean +-SD, depicting one out of two independent experiments. […]

[3] = high-dose UA diet (2.28 g/kg), 18 weeks

## O=c1oc2cc(O)ccc2c2ccc(O)cc12 [Urolithin A]
[1]
  Th1/Th17 cell infiltration: blocking Th1/Th17 cell infiltration
[2]; [3]
  tumor incidence: significant decrease
  tumor size: significant decrease
[2]; high-dose UA diet, colons at week 24
  infiltration of CD3+ T cells: increased infiltration of CD3^+T cells
[2]; low-dose UA diet (0.57 g/kg), 18 weeks
  tumor load: did not have an effect on tumor load
